Experimental data published in the supplement of paper PMC4628005.

What was measured:
Conditions in all cases: drug exposure time: 96 h
17-AAG = compound: C=CCNC1=C2C[C@@H](C)C[C@H](OC)[C@H](O)[C@@H](C)/C=C(\C)[C@H](OC(N)=O)[C@@H](OC)/C=C\C=C(/C)C(=O)NC(=CC1=O)C2=O [17-AAG]
Procedure: (§1)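 Same SRB 96 h IC50 screen on breast cancer cell lines (RPMI 1640 + 10% FBS, collagen I-coated 96-well plates, triplicates, 12 dilutions), for drugs with a different dose range: Bortezomib up to 2e-5 M; Sirolimus and 17-AAG up to 2e-6 M. Sirolimus values at the 2e-6 M top dose are censored.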

Bortezomib = compound: CC(C)C[C@H](NC(=O)[C@H](Cc1ccccc1)NC(=O)c1cnccn1)B(O)O [Bortezomib]
Procedure: as §1

Sirolimus = compound: CO[C@H]1C[C@@H]2CC[C@@H](C)[C@@](O)(O2)C(=O)C(=O)N2CCCC[C@H]2C(=O)O[C@H]([C@H](C)C[C@@H]2CC[C@@H](O)[C@H](OC)C2)CC(=O)[C@H](C)/C=C(\C)[C@@H](O)[C@@H](OC)C(=O)[C@H](C)C[C@H](C)/C=C/C=C/C=C/1C [Sirolimus]
Procedure: as §1

Tamoxifen = compound: CC/C(=C(\c1ccccc1)c1ccc(OCCN(C)C)cc1)c1ccccc1 [Tamoxifen]
Procedure: (§2)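 Breast cancer cell lines were grown in RPMI 1640 with 10% FBS on collagen I-coated 96-well plates and treated for 96 h (from 24 h after seeding) with 12 dilutions per drug, in triplicate. Growth was read by sulforhodamine B total-protein staining (absorbance 570 nm) relative to diluent control, and IC50 was calculated. The top dose was 1e-5 M for most drugs; Bortezomib went to 2e-5 M and Sirolimus and 17-AAG to 2e-6 M[…].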

Sorafenib = compound: CNC(=O)c1cc(Oc2ccc(NC(=O)Nc3ccc(Cl)c(C(F)(F)F)c3)cc2)ccn1 [Sorafenib]
Procedure: as §2

Cisplatin = compound: N.N.[Cl][Pt][Cl] [Cisplatin]
Procedure: as §2

Nutlin-3 = compound: COc1ccc(C2=N[C@@H](c3ccc(Cl)cc3)[C@@H](c3ccc(Cl)cc3)N2C(=O)N2CCNC(=O)C2)c(OC(C)C)c1 [Nutlin-3]
Procedure: as §2

Quisinostat = compound: Cn1cc(CNCC2CCN(c3ncc(C(=O)NO)cn3)CC2)c2ccccc21 [Quisinostat]
Procedure: as §2

Docetaxel = compound: CC(=O)O[C@@]12CO[C@@H]1C[C@H](O)[C@@]1(C)C(=O)[C@H](O)C3=C(C)[C@@H](OC(=O)[C@H](O)[C@@H](NC(=O)OC(C)(C)C)c4ccccc4)C[C@@](O)([C@@H](OC(=O)c4ccccc4)[C@H]21)C3(C)C [Docetaxel]
Procedure: as §2

Lapatinib = compound: CS(=O)(=O)CCNCc1ccc(-c2ccc3ncnc(Nc4ccc(OCc5cccc(F)c5)c(Cl)c4)c3c2)o1 [Lapatinib]
Procedure: as §2

Erlotinib = compound: C#Cc1cccc(Nc2ncnc3cc(OCCOC)c(OCCOC)cc23)c1 [Erlotinib]
Procedure: as §2

Brivanib = compound: Cc1cc2c(F)c(Oc3ncnn4cc(OC[C@@H](C)O)c(C)c34)ccc2[nH]1 [Brivanib]
Procedure: as §2

Vandetanib = compound: COc1cc2/c(=N/c3ccc(Br)cc3F)nc[nH]c2cc1OCC1CCN(C)CC1 [Vandetanib]
Procedure: as §2

Doxorubicin = compound: COc1cccc2c1C(=O)c1c(O)c3c(c(O)c1C2=O)C[C@@](O)(C(=O)CO)C[C@@H]3O[C@H]1C[C@H](N)[C@H](O)[C@H](C)O1 [Doxorubicin]
Procedure: as §2

Methotrexate = compound: CN(Cc1cnc2nc(N)nc(N)c2n1)c1ccc(C(=O)N[C@@H](CCC(=O)O)C(=O)O)cc1 [Methotrexate]
Procedure: as §2

Gefitinib = compound: COc1cc2ncnc(Nc3ccc(F)c(Cl)c3)c2cc1OCCCN1CCOCC1 [Gefitinib]
Procedure: as §2

Tipifarnib = compound: Cn1cncc1[C@@](N)(c1ccc(Cl)cc1)c1ccc2c(c1)c(-c1cccc(Cl)c1)cc(=O)n2C [Tipifarnib]
Procedure: as §2

Serdemetan = compound: c1ccc2c(CCNc3ccc(Nc4ccncc4)cc3)c[nH]c2c1 [Serdemetan]
Procedure: as §2

Decitabine = compound: Nc1ncn([C@H]2C[C@H](O)[C@@H](CO)O2)c(=O)n1 [Decitabine]
Procedure: as §2

5-Fluorouracil = compound: O=c1[nH]cc(F)c(=O)[nH]1 [5-Fluorouracil]
Procedure: as §2

Paclitaxel = compound: CC(=O)O[C@H]1C(=O)[C@@]2(C)[C@H]([C@H](OC(=O)c3ccccc3)[C@]3(O)C[C@H](OC(=O)[C@H](O)[C@@H](NC(=O)c4ccccc4)c4ccccc4)C(C)=C1C3(C)C)[C@]1(OC(C)=O)CO[C@@H]1C[C@@H]2O [Paclitaxel]
Procedure: as §2

ARQ197 = compound: O=C1NC(=O)[C@@H](c2cn3c4c(cccc24)CCC3)[C@@H]1c1c[nH]c2ccccc12 [ARQ197]
Procedure: as §2

Panobinostat = compound: Cc1[nH]c2ccccc2c1CCNCc1ccc(/C=C/C(=O)NO)cc1 [Panobinostat]
Procedure: as §2

Belinostat = compound: O=C(/C=C/c1cccc(S(=O)(=O)Nc2ccccc2)c1)NO [Belinostat]
Procedure: as §2

Sunitinib = compound: CCN(CC)CCNC(=O)c1c(C)[nH]c(/C=C2\C(=O)Nc3ccc(F)cc32)c1C [Sunitinib]
Procedure: as §2

Mitoxantrone = compound: O=C1c2c(O)ccc(O)c2C(=O)c2c(NCCNCCO)ccc(NCCNCCO)c21 [Mitoxantrone]
Procedure: as §2

MI-219 = compound: CC(C)(C)C[C@H]1N[C@@H](C(=O)NCC[C@H](O)CO)[C@H](c2cccc(Cl)c2)[C@@]12C(=O)Nc1cc(Cl)c(F)cc12 [MI-219]
Procedure: as §2

Azacitidine = compound: Nc1ncn([C@@H]2O[C@H](CO)[C@@H](O)[C@H]2O)c(=O)n1 [Azacitidine]
Procedure: as §2

Dasatinib = compound: Cc1nc(Nc2ncc(C(=O)Nc3c(C)cccc3Cl)s2)cc(N2CCN(CCO)CC2)n1 [Dasatinib]
Procedure: as §2

Vorinostat = compound: O=C(CCCCCCC(=O)Nc1ccccc1)NO [Vorinostat]
Procedure: as §2

Test System | IC50 (SRB growth assay) (17-AAG) [µM] | IC50 (SRB growth assay) (Bortezomib) [µM] | IC50 (SRB growth assay) (Sirolimus) [µM] | IC50 (SRB growth assay) (Tamoxifen) [µM] | IC50 (SRB growth assay) (Sorafenib) [µM] | IC50 (SRB growth assay) (Cisplatin) [µM] | IC50 (SRB growth assay) (Nutlin-3) [µM] | IC50 (SRB growth assay) (Quisinostat) [µM] | IC50 (SRB growth assay) (Docetaxel) [µM] | IC50 (SRB growth assay) (Lapatinib) [µM] | IC50 (SRB growth assay) (Erlotinib) [µM] | IC50 (SRB growth assay) (Brivanib) [µM] | IC50 (SRB growth assay) (Vandetanib) [µM] | IC50 (SRB growth assay) (Doxorubicin) [µM] | IC50 (SRB growth assay) (Methotrexate) [µM] | IC50 (SRB growth assay) (Gefitinib) [µM] | IC50 (SRB growth assay) (Tipifarnib) [µM] | IC50 (SRB growth assay) (Serdemetan) [µM] | IC50 (SRB growth assay) (Decitabine) [µM] | IC50 (SRB growth assay) (5-Fluorouracil) [µM] | IC50 (SRB growth assay) (Paclitaxel) [µM] | IC50 (SRB growth assay) (ARQ197) [µM] | IC50 (SRB growth assay) (Panobinostat) [µM] | IC50 (SRB growth assay) (Belinostat) [µM] | IC50 (SRB growth assay) (Sunitinib) [µM] | IC50 (SRB growth assay) (Mitoxantrone) [µM] | IC50 (SRB growth assay) (MI-219) [µM] | IC50 (SRB growth assay) (Azacitidine) [µM] | IC50 (SRB growth assay) (Dasatinib) [µM] | IC50 (SRB growth assay) (Vorinostat) [µM]
HCC 1419 | 0.014 | 0.00428 | 0.000195 | 4.58 | 3.45 | > 10 | > 10 | 0.0038 | 0.0152 | 0.0284 | 2.72 | > 10 | 3.54 | 0.153 | 0.164 | 2.68 | 0.55 | 2.45 | > 10 | > 10 | 0.0333 | 1.21 | 0.00631 | 0.174 | 9.93 | 0.126 | > 10 | > 10 | 6.03 | 0.542
HCC 1500 | 0.905 | 0.00555 | 0.000274 | > 10 | 6.09 | > 10 | 2.67 | 0.00934 | 0.000745 | 0.529 | 0.617 | > 10 | 1.28 | 0.0403 | > 10 | 0.679 | 1.05 | 1.96 | 6.21 | 3.93 | 0.00344 | 0.197 | 0.0128 | 0.367 | 8.23 | 0.0306 | 1.07 | 2.33 | 0.959 | 0.987
SUM 44 PE | 0.0158 | 0.00946 | 0.000222 | 5.2 | 5.05 | > 10 | > 10 | 0.00221 | 0.000414 | 4.76 | > 10 | > 10 | 4.2 | 0.0308 | > 10 | > 10 | 3.27 | 2.88 | > 10 | 8.64 | 0.00135 | 0.539 | 0.00933 | 0.139 | 5.02 | 0.0207 | > 10 | 3.44 | > 10 | 0.564
SKBR 3 | 0.0189 | 0.0055 | 0.000587 | 6.72 | 4.79 | > 10 | > 10 | 0.00333 | 0.000589 | 0.0437 | 3.74 | > 10 | 3.49 | 0.0204 | 0.00997 | 2.63 | 0.279 | 1.08 | 2.35 | 4.77 | 0.00168 | 0.404 | 0.00539 | 0.19 | 3.41 | 0.00474 | > 10 | 2.69 | > 10 | 0.499
CAMA 1 | 0.0227 | 0.00612 | 0.000106 | 7.98 | 5.24 | > 10 | > 10 | 0.00287 | 0.000662 | 4.2 | > 10 | > 10 | > 10 | 0.0218 | 8.3 | > 10 | 3.04 | 1.52 | 1.04 | 1.56 | 0.00195 | 0.424 | 0.0126 | 0.339 | 5.68 | 0.00616 | > 10 | 5.56 | > 10 | 1.02
MDA-MB 435 S | 0.164 | 0.0123 | > 2 | > 10 | 6.53 | > 10 | > 10 | 0.0252 | 0.00132 | > 10 | > 10 | > 10 | 6.95 | 0.0548 | 0.0124 | > 10 | > 10 | 2.05 | > 10 | 2.86 | 0.00215 | 0.705 | 0.0445 | 2.01 | 5.44 | 0.0358 | > 10 | 3.76 | > 10 | 2.63
